Among the data in PubChem BioAssay (NCI) are TGI values, retold here.

Holding throughout (test): NCI-60 cell line screen, 48 h
Test [1] concerns HS 578T breast.
For test [2], the system named is SK-MEL-5 melanoma.
Test [3] has as its system SK-OV-3 ovarian.
Test [4] relates to M14 melanoma.
Test [5] deals with ACHN renal.
For test [6], the system named is CCRF-CEM leukemia.
Test [7] has as its system SF-268 CNS.
For test [8], the system named is T-47D breast.
Test [9] deals with HCT-116 colon.
Test [10] relates to LOX IMVI melanoma.
The test system of test [11] is NCI/ADR-RES ovarian.
In test [12] the test system is UACC-257 melanoma.

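Exposure lasted 48 hours, with cells grown in 96-well plates and compounds tested at five concentrations. The concentration for full growth arrest is given as TGI.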

Take `CCN(CC)CCC1CCCCN1CC(=O)N1c2cc(Cl)ccc2NC(=O)CC1C` (stereo not given): the TGI in [1], in test [2], in [3], in test [4], in test [5] and in test [6] was above 100 µM throughout. Moreover, the TGI in [7], in [8], in test [9] and in test [10] was above 100 µM throughout.

Consider `COc1cccc(CCNc2c(C#N)c3n(c4ccccc4[n+]3C)c3ncccc23)c1`, for which the TGI in [1] stood at 15 µM; in test [2] it was 28.8 µM; in test [3], 42.1 µM; in test [4], 3.08 µM; in test [5] it was 36.1 µM; in test [7] it was 38.5 µM. Further, the TGI was 14.7 µM in [8]; 5.3 µM in test [9]; 3.08 µM in test [10]; above 51 µM in [11]; 46.3 µM in test [12].

`O=c1[nH]cnc2c1cnn2Cc1cnnn1COCCO`: the TGI in test [1], in test [2], in [3], in test [4], in test [5] and in [7] was above 100 µM throughout. Further, the TGI in test [8], in [9], in [10], in test [11] and in test [12] was above 100 µM in each case.

As for `CC(=O)NC(C)(C)C1CCC(C)CC1` (stereo not given), the TGI in test [1], in test [2], in test [3], in test [4], in test [5] and in test [6] was above 100 µM in each case. The TGI in [7], in test [9], in test [10], in [11] and in test [12] was above 100 µM throughout.

Take `COc1ccc(C2=NNC(=O)c3ccccc3N2c2nc(-c3cccs3)nc3cc(OC)c(OC)cc23)cc1`: the TGI in test [1] is 27.5 µM; in test [2], 17.3 µM; in test [3] it was above 100 µM; in [4], 20.2 µM; in [5], 13.3 µM; in test [7] it was above 100 µM. The TGI in [8] is 17.6 µM; in [9], above 100 µM; in test [11], above 100 µM; in test [12], 88.2 µM.

As for `O=C(NC1=C(Cl)C(=O)c2ccccc2C1=O)C(=O)C(C(=O)c1ccc2ccccc2c1)C1OC(=O)c2ccccc21` (stereo not given), the TGI in [1] was 45.2 µM; in test [2] it was 1.96 µM; in [3], 44 µM; in [4], 18.2 µM; in [5], 21.1 µM; in test [6], 26.9 µM. Moreover, the TGI in [7] was determined as 29.6 µM; in [8], 29.3 µM; in [9] it was 10.5 µM; in test [10], 11.2 µM; in test [12], 5.48 µM.

On to `CN1C(=O)C23CCCC2CC1(c1ccccc1)S3` (stereo not given), for which the TGI in test [1], in test [2], in test [3], in test [4], in test [5] and in test [7] was above 100 µM in each case. The TGI in test [8] is above 100 µM; in test [9] it was above 100 µM; in test [10], above 100 µM; in [11], above 100 µM; in test [12], 80.6 µM.

Turning to `O=C1CC(c2ccccc2)n2c(nc3ccccc32)N1` (stereo not given), the TGI in test [1] was above 100 µM; in test [2], 42.8 µM; in test [3] it was above 100 µM; in [4], above 100 µM; in test [5], above 100 µM; in [7] it was above 100 µM. In addition, the TGI in [8], in test [9], in test [10], in [11] and in [12] was above 100 µM each time.

For `O=S(=O)(c1ccccc1)c1ccc(-c2nc(-c3ccc4c(c3)Sc3ccccc3S4)cs2)cc1`, the TGI is above 100 µM in test [1]; 41.9 µM in test [3]; above 100 µM in test [4]; above 100 µM in test [5]; above 100 µM in test [6]; above 100 µM in test [7]. Besides, the TGI in test [8], in test [9], in [10] and in test [12] was above 100 µM in each case.

Turning to `COc1ccc(Nc2nc(N)c(C(=O)c3ccc(Cl)cc3)s2)cc1`, the TGI in [1] is above 100 µM; in [2], 2.19 µM; in test [3], 20.4 µM; in [4], above 64.4 µM; in test [5], 31.5 µM; in test [7], above 67.5 µM. In addition, the TGI is above 100 µM in [8]; 6.64 µM in [9]; 19.9 µM in test [10]; 29.7 µM in [11]; above 100 µM in test [12].

On to `COc1ccc(N2C(=O)/C(=C/c3ccc(N(CCC#N)CCC#N)cc3)N=C2c2ccccc2)cc1`, for which the TGI in test [1], in test [2], in test [3], in [4], in [5] and in [7] was above 100 µM throughout. Further, the TGI in test [8], in test [9], in test [10], in test [11] and in test [12] was above 100 µM throughout.

Regarding `CCOC(=O)N1CCC2(CC1)C[C@@](C(C)=O)(c1ccccc1)C(C)O2` (stereo not given in full), the TGI in [1], in [2], in test [3], in test [4], in [5] and in test [7] was above 100 µM in each case. Further, the TGI in [8] was 91.4 µM; in [10] it was above 100 µM; in test [11], above 100 µM; in test [12], above 100 µM.

Turning to `CCSc1nc(N/N=C/c2cccs2)c2cnn(CO)c2n1`, the TGI in [1] came out at 15.3 µM; in [2] it was 12.9 µM; in test [3], 29.4 µM; in test [4] it was 22.9 µM; in test [5] it was 22.6 µM; in [7], 23.7 µM. For the same compound, the TGI in test [8] is 18.5 µM; in test [9] it was 16.6 µM; in test [11] it was 15.9 µM; in [12], 26.4 µM.

On to `COc1ccc(/C=C/C(=O)c2ccc(Br)cc2)cc1`, for which the TGI in [1], in test [2], in [3], in test [4], in test [5] and in [6] was above 100 µM throughout. The TGI in [7], in test [8], in test [9] and in [11] was above 100 µM throughout.

With `COC(=O)C(=O)C(C(=O)OC)C(=O)C(=O)Nc1c(Cl)cc([N+](=O)[O-])cc1Cl` (stereo not given), the TGI in [1], in test [2], in test [3], in test [4], in test [5] and in test [7] was above 100 µM each time. Further, the TGI in test [8], in test [9], in test [10], in test [11] and in [12] was above 100 µM in each case.

As to `O=c1[nH]c2ccc(CC(=S)N3CCOCC3)cc2o1`, the TGI in test [1], in test [3], in test [4], in test [5], in test [6] and in test [7] was above 100 µM throughout. Moreover, the TGI in [9], in [10], in test [11] and in test [12] was above 100 µM in each case.

Take `Cc1nc2ccc(NC3OCC(O)C(O)C3O)cc2c(=O)n1-c1ccccc1` (stereo not given): the TGI in test [1], in test [2], in test [5], in test [7], in [8] and in [9] was above 100 µM throughout. Also, the TGI in test [10], in test [11] and in test [12] was above 100 µM throughout.

Turning to `Cc1ccc(S(=O)(=O)N(CCNC(=O)c2cccc(O)c2O)c2cc3c4c(c2)Oc2cccc5c2C4(C)c2c(cccc2O3)O5)cc1`, the TGI in test [1], in test [2], in test [3], in test [4], in test [5] and in [7] was above 100 µM in each case. The TGI in test [8] is above 100 µM; in test [9], above 100 µM; in test [10], above 100 µM; in [11] it was 58 µM; in test [12] it was above 100 µM.

For the compound `CC1CN(CCO)CCN1c1ccccc1` (stereo not given), the TGI in [1], in test [2], in test [3], in test [4], in test [5] and in test [7] was above 100 µM in each case. Also, the TGI in test [8], in [9], in [10], in test [11] and in test [12] was above 100 µM each time.
